In patent publication US8629158B2, “Azabicycloalkane-indole and azabicycloalkane-pyrrolo-pyridine MCH-1 antagonists, methods of making, and use thereof” (Albany Molecular Research, Inc., priority 2009, dated 2014):
Counter-ions that a name gives are not always drawn. Like-named read-outs stand apart in the source and are kept apart here.

Biological target: human MCH-1 receptor (Homo sapiens (Human), UniProt Q99705)
Experiment: Binding Assay for Human Melanin-Concentrating Hormone (MCH-1) Receptor (radioligand displacement, CHO-K1 membranes)
Conditions: for Ki: membranes from CHO-K1 cells expressing human MCH1 receptor, [3H]-labeled radioligand, Ki from IC50 by Cheng Prusoff; for inhibition at 1 µM: @ 1 uM test compound, read-out: MCH-1 percent inhibition of control radioligand specific binding
Description: Evaluation of the affinity of compounds for the human MCH-1 receptor was accomplished using 4-(3,4,5-tritritiumbenzyloxy)-1-(1-(2-(pyrrolidin-1-yl)ethyl)-1H-indazol-5-yl)pyridin-2(1H)-one and membranes prepared from stable CHO-K1 cells expressing the human MCH1 receptor obtained from Euroscreen (Batch 1138). Cell membrane homogenates (8.92 μg protein) were incubated for 60 min at 25° C. with […] of the [^3H]-labeled compound in the absence or presence of the test compound in 50 mM Tris-HCl buffer, pH 7.4. Nonspecific binding was determined in the presence of 50 μM 1-(5-(4-cyanophenyl)bicyclo[3.1.0]hexan-2-yl)-3-(4-fluoro-3-(trifluoromethyl)phenyl)-1-(3-(4-methylpiperazin-1-yl)propyl)urea. Following incubation, the samples were filtered rapidly under vacuum through Skatron 11731 filters, pre-soaked in 0.5% polyethylenimine, and washed with ice-cold 50 mM Tris-HCl buffer, pH 7.4, (wash setting 9,9,0) using a Skatron cell harvester. The filters were counted for radioactivity in a liquid scintillation counter (Tri-Carb 2100TR, Packard) using a scintillation cocktail (Ultima Gold MV, Perkin Elmer).
The results are expressed as a percent inhibition of the control radioligand specific binding. The IC50 value (concentration causing a half-maximal inhibition of control specific binding) and Hill coefficient (nH) were determined by non-linear regression analysis of the competition curve using Hill equation curve fitting. The inhibition constant (Ki) was calculated from the Cheng Prusoff equation: (Ki=IC50/(1+(L/KD)), where L=concentration of radioligand in the assay, and KD=affinity of the radioligand for the receptor.

Chain of human MCH-1 receptor (Q99705 whole entry): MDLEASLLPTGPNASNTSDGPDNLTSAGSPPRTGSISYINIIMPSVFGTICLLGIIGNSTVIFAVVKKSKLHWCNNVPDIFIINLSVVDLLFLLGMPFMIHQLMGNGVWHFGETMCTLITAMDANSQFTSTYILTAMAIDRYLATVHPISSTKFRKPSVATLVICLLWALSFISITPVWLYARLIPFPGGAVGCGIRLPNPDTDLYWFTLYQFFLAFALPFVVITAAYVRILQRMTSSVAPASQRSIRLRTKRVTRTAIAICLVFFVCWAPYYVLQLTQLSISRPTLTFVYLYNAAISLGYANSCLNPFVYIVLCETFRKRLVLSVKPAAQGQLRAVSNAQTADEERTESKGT

SMILES	Ki (MCH-1 Ki (nM)) [nM]	Ki (read-out: MCH-1 Ki) [nM]	also measured
Cn1c2c(c3ccc(-n4ccc(OCc5ccccc5)cc4=O)cc31)C1CCC(C2)N1 (single isomer, unassigned; enantiomer a) [Example 14, 4-(Benzyloxy)-1-(5-methyl-5,6,7,8,9,10-hexahydro-7,10-iminocyclohept[b]indol-3-yl)pyridin-2(1H)-one hydrochloride (Enantiomer A)]	15.8		
Cn1c2c(c3ccc(-n4ccc(OCc5ccc(F)cn5)cc4=O)cc31)C1CCC(C2)N1 (single isomer, unassigned; enantiomer a) [Example 25, (+)-4-((5-Fluoropyridin-2-yl)methoxy)-1-(5-methyl-5,6,7,8,9,10-hexahydro-7,10-iminocyclohept[b]indol-3-yl)pyridin-2(1H)-one hydrochloride (Enantiomer A)]	19		
CC(=O)N1C2CCC1c1c(n(C)c3cc(-n4ccc(OCc5ccc(F)cn5)cc4=O)ccc13)C2 (single isomer, unassigned; enantiomer a) [Example 29, 1-(11-Acetyl-5-methyl-5,6,7,8,9,10-hexahydro-7,10-iminocyclohept[b]indol-3-yl)-4-((5-Fluoropyridin-2-yl)methoxy)pyridin-2(1H)-one (Enantiomer A)]	75		
CC(=O)N1C2CCC1c1c([nH]c3cc(-n4ccc(OCc5ccccc5)cc4=O)ccc13)C2 (single isomer, unassigned; enantiomer a) [Example 30, 1-(11-Acetyl-5,6,7,8,9,10-hexahydro-7,10-iminocyclohept[b]indol-3-yl)-4-(benzyloxy)pyridin-2(1H)-one hydrochloride (Enantiomer A)]	97		
Cn1c2c(c3ccc(N4CCN(CCc5ccccc5)CC4=O)cc31)C1CCC(C2)N1 (single isomer, unassigned; enantiomer a) [Example 34, 1-(5-Methyl-5,6,7,8,9,10-hexahydro-7,10-iminocyclohept[b]indol-3-yl)-4-phenethylpiperazin-2-one dihydrochloride (Enantiomer A)]			inhibition at 1 µM: 68%
Cn1c2c(c3ccc(-n4ccc(-c5ccc(C(F)(F)F)nc5)cc4=O)cc31)C1CCC(C2)N1 (single isomer, unassigned; enantiomer a) [Example 37, 1-(5-Methyl-5,6,7,8,9,10-hexahydro-7,10-iminocyclohept[b]indol-3-yl)-4-(6-(trifluoromethyl)pyridin-3-yl)pyridin-2(1H)-one hydrochloride (Enantiomer A)]			inhibition at 1 µM: 72%
Cn1c2c(c3ccc(-n4ccc(OCc5ccccc5)cc4=O)cc31)C1CCC(C2)N1 (single isomer, unassigned; enantiomer b) [Example 15, 4-(Benzyloxy)-1-(5-methyl-5,6,7,8,9,10-hexahydro-7,10-iminocyclohept[b]indol-3-yl)pyridin-2(1H)-one hydrochloride (Enantiomer B)]	7.8		
Cn1c2c(c3ccc(-n4ccc(-c5ccc(C(F)(F)F)cn5)cc4=O)cc31)C1CCC(C2)N1 (single isomer, unassigned; enantiomer b) [Example 16, 1-(5-Methyl-5,6,7,8,9,10-hexahydro-7,10-iminocyclohept[b]indol-3-yl)-4-(5-(trifluoromethyl)pyridin-2-yl)pyridin-2(1H)-one hydrochloride (Enantiomer B)]		14	
Cn1c2c(c3ccc(-n4ccc(OCc5ccc(F)cn5)cc4=O)cc31)C1CCC(C2)N1 (single isomer, unassigned; enantiomer b) [Example 24, (−)-4-((5-Fluoropyridin-2-yl)methoxy)-1-(5-methyl-5,6,7,8,9,10-hexahydro-7,10-iminocyclohept[b]indol-3-yl)pyridin-2(1H)-one hydrochloride (Enantiomer B)]	7.4		
Cn1c2c(c3ccc(N4CCN(CCc5ccccc5)CC4=O)cc31)C1CCC(C2)N1 (single isomer, unassigned; enantiomer b) [Example 33, 1-(5-Methyl-5,6,7,8,9,10-hexahydro-7,10-iminocyclohept[b]indol-3-yl)-4-phenethylpiperazin-2-one dihydrochloride (Enantiomer B)]	17		
Cc1ccc(-c2ccn(-c3ccc4c5c(n(C)c4c3)CC3CCC5N3)c(=O)c2)cn1 (single isomer, unassigned; enantiomer b) [Example 35, 1-(5-Methyl-5,6,7,8,9,10-hexahydro-7,10-iminocyclohept[b]indol-3-yl)-4-(6-methylpyridin-3-yl)-pyridin-2(1H)-one hydrochloride (Enantiomer B)]		59	
Cn1c2c(c3ccc(-n4ccc(-c5ccc(C(F)(F)F)nc5)cc4=O)cc31)C1CCC(C2)N1 (single isomer, unassigned; enantiomer b) [Example 36, 1-(5-Methyl-5,6,7,8,9,10-hexahydro-7,10-iminocyclohept[b]indol-3-yl)-4-(6-(trifluoromethyl)pyridin-3-yl)pyridin-2(1H)-one hydrochloride (Enantiomer B)]	5.3		
Cn1c2c(c3ccc(-n4ccc(OCc5ccc(C(F)(F)F)nc5)cc4=O)cc31)C1CCC(C2)N1 (single isomer, unassigned; enantiomer b) [Example 38, 1-(5-Methyl-5,6,7,8,9,10-hexahydro-7,10-iminocyclohept[b]indol-3-yl)-4-((6-(trifluoromethyl)pyridin-3-yl)methoxy)pyridin-2(1H)-one hydrochloride (Enantiomer B)]	12		
Cn1c2c(c3ccc(-n4ccc(OCc5ccccc5)cc4=O)cc31)C1CCC(C2)N1 (stereo not drawn) [Example 2, 4-(Benzyloxy)-1-(5-methyl-5,6,7,8,9,10-hexahydro-7,10-iminocyclohept[b]indol-3-yl)pyridin-2(1H)-one hydrochloride]		10.5	
Cn1c2c(c3ccc(-n4ccc(-c5ccc(C(F)(F)F)cn5)cc4=O)cc31)C1CCC(C2)N1 (stereo not drawn) [Example 4, 1-(5-Methyl-5,6,7,8,9,10-hexahydro-7,10-iminocyclohept[b]indol-3-yl)-4-(5-(trifluoromethyl)pyridin-2-yl)pyridin-2(1H)-one dihydrochloride]		16.1	
Cn1c2c(c3ccc(-n4ccc(-c5ccc(C(F)(F)F)nc5)cc4=O)cc31)C1CCC(C2)N1 (stereo not drawn) [Example 5, 1-(5-Methyl-5,6,7,8,9,10-hexahydro-7,10-iminocyclohept[b]indol-3-yl)-4-(6-(trifluoromethyl)pyridin-3-yl)pyridin-2(1H)-one dihydrochloride]		6.5	
Cn1c2c(c3ccc(-n4ccc(OCc5ccc(F)cn5)cc4=O)cc31)C1CCC(C2)N1 (stereo not drawn) [Example 6, 4-((5-Fluoropyridin-2-yl)methoxy)-1-(5-methyl-5,6,7,8,9,10-hexahydro-7,10-iminocyclohept[b]indol-3-yl)pyridin-2(1H)-one dihydrochloride]		13.5	
Cn1c2c(c3ccc(-n4ccc(-c5cnc(C(F)(F)F)nc5)cc4=O)cc31)C1CCC(C2)N1 (stereo not drawn) [Example 7, 1-(5-Methyl-5,6,7,8,9,10-hexahydro-7,10-iminocyclohept[b]indol-3-yl)-4-(2-(trifluoromethyl)pyrimidin-5-yl)pyridin-2(1H)-one hydrochloride]		68.1	
O=c1cc(OCc2ccc(F)cn2)ccn1-c1ccc2c3c([nH]c2c1)CC1CCC3N1 (stereo not drawn) [Example 9, 4-((5-Fluoropyridin-2-yl)methoxy)-1-(5,6,7,8,9,10-hexahydro-7,10-iminocyclohept[b]indol-3-yl)pyridin-2(1H)-one dihydrochloride]		25.3	
Cn1c2c(c3ccc(-n4ccc(OCc5ccc(F)cn5)cc4=O)cc31)C1CCCC(C2)N1 (stereo not drawn) [Example 11, 4-((5-Fluoropyridin-2-yl)methoxy)-1-(5-methyl-6,7,8,9,10,11-hexahydro-7,11-imino-5H-cyclooct[b]indol-3-yl)pyridin-2(1H)-one dihydrochloride]		21.3	
Cn1c2c(c3ccc(-n4ccc(OCc5ccccc5)cc4=O)cc31)C1CCCC(C2)N1 (stereo not drawn) [Example 12, 4-(Benzyloxy)-1-(5-methyl-6,7,8,9,10,11-hexahydro-7,11-imino-5H-cyclooct[b]indol-3-yl)pyridin-2(1H)-one hydrochloride]		9.3	
Cn1c2c(c3ccc(-n4ncc(OCc5ccc(F)cn5)cc4=O)cc31)C1CCCC(C2)N1 (stereo not drawn) [Example 17, 5-((5-Fluoropyridin-2-yl)methoxy)-2-(5-methyl-6,7,8,9,10,11-hexahydro-7,11-imino-5H-cyclooct[b]indol-3-yl)pyridazin-3(2H)-one hydrochloride]		28	
CC(C)N1C2CCC1c1c(n(C)c3cc(-n4ccc(OCc5ccccc5)cc4=O)ccc13)C2 (stereo not drawn) [Example 28, 4-(Benzyloxy)-1-(11-isopropyl-5-methyl-5,6,7,8,9,10-hexahydro-7,10-iminocyclohept[b]indol-3-yl)pyridin-2(1H)-one hydrochloride]		12	
CCN1C2CCCC1c1c(n(C)c3cc(-n4ccc(OCc5ccccc5)cc4=O)ccc13)C2 (stereo not drawn) [Example 32, 4-(Benzyloxy)-1-(12-ethyl-5-methyl-6,7,8,9,10,11-hexahydro-7,11-imino-5H-cyclooct[b]indol-3-yl)pyridin-2(1H)-one hydrochloride]		15	
